Patent US11986474B1, “Methods for treating heart failure by administering cardiac sarcomere activators” (Cytokinetics, Incorporated, priority 2023, dated 2024)

Assays:
[1] = system: patients with heart failure with reduced ejection fraction; conditions: randomized, placebo-controlled phase 3 clinical trial; cited from earlier work
[2] = system: patients with chronic heart failure with reduced ejection fraction; conditions: cited from earlier work
[3] = GALACTIC-HF plasma concentration of omecamtiv mecarbil (PK-guided dosing); type: in vivo; conditions: Week 8 visit (Week 6 concentration)
Description: (§1) In a phase 3 clinical trial, Global Approach to Lowering Adverse Cardiac Outcomes through Improving Contractility in Heart Failure (GALACTIC-HF), all eligible participants were randomized 1:1 to oral administration of either placebo or omecamtiv mecarbil (pharmacokinetic-guided dosing: 25, 37.5 or 50 mg) twice daily. Pre-dose plasma concentrations of omecamtiv mecarbil were measured at weeks 2 and 6 with respective dose adjustments on weeks 4 and 8. The patient and investigator were blinded to the plasma concentrations and dispensed dose.
(§2) Participants randomized to omecamtiv mecarbil were started at the lowest dose of 25 mg twice daily. […] At the end of Week 8, 28.6% of participants were on 25 mg BID (including participants whose plasma concentration results were not available in time for any dose titration visit or participant compliance with dosing was not affirmatively documented by the investigator), which was higher than the anticipated proportion (4.1%) based on population PK modeling. In participants who completed the dosing algorithm as intended and were titrated to 37.5 or 50 mg BID, mean omecamtiv mecarbil plasma concentrations were higher than those in the 25 mg BID dose group. Participants titrated to doses of 37.5 or 50 mg BID tended to have reduced risk of the primary composite endpoint and cardiovascular death compared to those at a dose of 25 mg BID, as shown in Table 2 below.
A summary of participants by dose group at Week 4 (dose selection determined by the Week 2 concentrations of omecamtiv mecarbil), at Week 8 (dose selection determined by the Week 6 concentrations of omecamtiv mecarbil), and the final dose at Week 12, is provided in Table 3. Overall, the proportions of participants receiving each of the omecamtiv mecarbil doses remained generally consistent over time. At the Week 8 visit, 3.0% of participants had their doses adjusted from 50 to 25 mg BID and 1.1% from 37.5 to 25 mg BID. […]

[4] = system: cardiomyocyte calcium transient; conditions: cited from earlier work
[5] = system: patients with heart failure with reduced ejection fraction; test: GALACTIC-HF phase 3 clinical trial, outcomes by titrated dose group; type: in vivo, human; conditions: for Hazard Ratio, CV Death / Hazard Ratio, Primary Endpoint: OM vs PBO
Description: In a phase 3 clinical trial, Global Approach to Lowering Adverse Cardiac Outcomes through Improving Contractility in Heart Failure (GALACTIC-HF), the following dosing regimen was used to assess treatment effect with omecamtiv mecarbil in patients with heart failure with reduced ejection fraction. At the initiation of treatment, a first dose level of 25 mg twice daily was orally administered to subjects randomized to receive omecamtiv mecarbil. At study visit week 2, a predose blood sample was collected. At week 4, subjects with week 2 omecamtiv mecarbil predose plasma concentration of less than 200 ng/mL would increase their dose level to 50 mg twice daily; subjects with week 2 plasma concentrations greater than or about 200 ng/mL but less than 300 ng/mL would increase their dose level to 37.5 mg twice daily; subjects with week 2 plasma concentrations greater than or about 300 ng/mL but less than 1000 ng/mL would maintain a dose level of 25 mg twice daily; and subjects with plasma concentration greater than or about 1000 ng/mL would start administration of placebo twice daily. At weeks 6, a predose blood sample was collected to confirm plasma concentration achieved and assess if changes to the dose should be made. […] The dosing regimen used in the GALACTIC-HF study was associated with reduced risk of heart failure outcomes and a very low incidence of excessive concentrations of omecamtiv mecarbil (e.g., plasma concentration over 1000 ng/mL). Treatment results were described in, for example, Cardiac Myosin Activation with Omecamtiv Mecarbil in Systolic Heart Failure (Teerlink et al., N. Engl. J. Med., 2021, 384; 2) and NCT02929329.
as §1, §2

[6] = patients with chronic HFrEF, treatment for 20 weeks
[7] = 25 mg BID dose group, Cox Model Adjusting for Significant Baseline Covariates
[8] = 25 mg BID dose group, Planned Primary Analysis Cox Model
[9] = 37.5 mg BID dose group, Cox Model Adjusting for Significant Baseline Covariates
[10] = 37.5 mg BID dose group, Planned Primary Analysis Cox Model
[11] = 50 mg BID dose group, Cox Model Adjusting for Significant Baseline Covariates
[12] = 50 mg BID dose group, Planned Primary Analysis Cox Model

Structure (SMILES): COC(=O)N1CCN(Cc2cccc(NC(=O)Nc3ccc(C)nc3)c2F)CC1 [omecamtiv mecarbil, methyl 4-(2-fluoro-3-(3-(6-methylpyridin-3-yl)ureido)benzyl)piperazine-1-carboxylate]
- relative risk of a heart-failure event or death from cardiovascular causes vs placebo [1]: lower relative risk
- risk of myocardial ischemic events, ventricular arrhythmias, or death from cardiovascular causes or any cause [1]: without evidence of an increase
- cardiac performance ([2]; early clinical studies, short-term intravenous administration): improved
- plasma concentration above which the risk of cardiac ischemic events is increased ([2]; likely due to shortening of diastole and decreased coronary perfusion): exceeding 1200 ng/mL
- left ventricular systolic and diastolic volumes [2, 6]: decreased
- left ventricular systolic function [2, 6]: increased
- natriuretic peptide concentrations and heart rate [2, 6]: reduced
- participants with down titration due to plasma concentration exceeding 750 ng/mL, number (%) [3]: 9 (0.22%)
- participants with down titration, plasma concentration in the 750 to <1,000 ng/mL range [3]: 8 participants
- concentration at 6 weeks ([3]; human, plasma, oral, read-out: plasma concentration of the 1 down-titrated participant above 1,000 ng/mL): 1000 ng/mL
- effect on intracellular calcium transients [4]: no effect
- Hazard Ratio, CV Death [5, 7]: 1.11
- Hazard Ratio, Primary Endpoint [5, 7]: 0.93
- Hazard Ratio, CV Death [5, 8]: 1.18
- Hazard Ratio, Primary Endpoint [5, 8]: 1.00
- Primary Endpoint, participants n/N ([5]; 37.5 mg BID dose group, OM arm): OM (225/602) vs PBO (1,477/3,897)
- Hazard Ratio, CV Death [5, 9]: 0.94
- Hazard Ratio, Primary Endpoint [5, 9]: 0.90
- Hazard Ratio, CV Death [5, 10]: 1.00
- Hazard Ratio, Primary Endpoint [5, 10]: 0.93
- Hazard Ratio, CV Death [5, 11]: 0.98
- Hazard Ratio, Primary Endpoint [5, 11]: 0.89
- Hazard Ratio, CV Death [5, 12]: 0.91
- Hazard Ratio, Primary Endpoint [5, 12]: 0.87
